Source: the NIST ThermoML archive (doi:10.1021/je7000446)

Test: relative permittivity at various frequencies (dimensionless)
Details: Fluid (supercritical or subcritical phases), Frequency=0.06 MHz, Parallel plate capacitor

COC(F)(F)C(F)(F)F [methyl pentafluoroethyl ether]
Details	relative permittivity
312.9 K, 1500 kPa	6.94
312.9 K, 3200 kPa	7
312.9 K, 6100 kPa	7.08
312.9 K, 8300 kPa	7.14
312.9 K, 10400 kPa	7.2
312.9 K, 12500 kPa	7.25
312.9 K, 14400 kPa	7.29
312.9 K, 16500 kPa	7.34
312.9 K, 18300 kPa	7.37
312.9 K, 26200 kPa	7.51
312.9 K, 27800 kPa	7.53
318 K, 1500 kPa	6.78
318 K, 3200 kPa	6.85
318 K, 6300 kPa	6.95
318 K, 8300 kPa	7.01
318 K, 10400 kPa	7.06
318 K, 12400 kPa	7.11
318 K, 14100 kPa	7.15
318 K, 16400 kPa	7.19
318 K, 18300 kPa	7.22
318 K, 20400 kPa	7.27
318 K, 22200 kPa	7.29
318 K, 23800 kPa	7.31
323.4 K, 2000 kPa	6.65
323.4 K, 3200 kPa	6.69
323.4 K, 4400 kPa	6.73
323.4 K, 6600 kPa	6.79
323.4 K, 8300 kPa	6.84
323.4 K, 10100 kPa	6.89
323.4 K, 12200 kPa	6.94
323.4 K, 14000 kPa	7
323.4 K, 16000 kPa	7.05
323.4 K, 18000 kPa	7.09
323.4 K, 20000 kPa	7.12
323.4 K, 22200 kPa	7.16
323.4 K, 24400 kPa	7.2
323.4 K, 26300 kPa	7.24
323.4 K, 28400 kPa	7.27

CC(F)(F)F [1,1,1-trifluoroethane]
Details	relative permittivity
302.8 K, 1600 kPa	9.28
302.8 K, 4000 kPa	9.44
302.8 K, 6200 kPa	9.56
302.8 K, 8200 kPa	9.67
302.8 K, 10200 kPa	9.77
302.8 K, 12300 kPa	9.86
302.8 K, 16200 kPa	10.02
302.8 K, 18500 kPa	10.1
302.8 K, 20100 kPa	10.16
302.8 K, 22000 kPa	10.24
302.8 K, 24200 kPa	10.31
302.8 K, 26300 kPa	10.38
302.8 K, 28300 kPa	10.44
302.8 K, 30700 kPa	10.51
313.2 K, 1700 kPa	8.61
313.2 K, 2700 kPa	8.69
313.2 K, 4200 kPa	8.82
313.2 K, 6300 kPa	8.96
313.2 K, 8000 kPa	9.05
313.2 K, 8800 kPa	9.12
313.2 K, 14200 kPa	9.39
313.2 K, 16300 kPa	9.49
313.2 K, 18400 kPa	9.58
313.2 K, 20400 kPa	9.67
313.2 K, 21800 kPa	9.73
313.2 K, 24200 kPa	9.81
313.2 K, 26100 kPa	9.87
313.2 K, 28400 kPa	9.9
313.2 K, 30300 kPa	9.95
313.2 K, 31600 kPa	9.98
322.8 K, 2400 kPa	8.08
322.8 K, 4500 kPa	8.27
322.8 K, 6500 kPa	8.43
322.8 K, 8400 kPa	8.56
322.8 K, 10300 kPa	8.68
322.8 K, 12100 kPa	8.79
322.8 K, 14300 kPa	8.89
322.8 K, 16300 kPa	8.98
322.8 K, 18300 kPa	9.07
322.8 K, 20200 kPa	9.16
322.8 K, 22300 kPa	9.24
322.8 K, 24400 kPa	9.32
322.8 K, 26200 kPa	9.38
322.8 K, 27900 kPa	9.43
322.8 K, 28800 kPa	9.46
322.8 K, 31000 kPa	9.49
333 K, 1500 kPa	7.35
333 K, 2600 kPa	7.45
333 K, 4400 kPa	7.66
333 K, 6300 kPa	7.84
333 K, 8400 kPa	8.01
333 K, 10300 kPa	8.14
333 K, 12400 kPa	8.26
333 K, 14400 kPa	8.38
333 K, 16300 kPa	8.48
333 K, 18300 kPa	8.58
333 K, 20100 kPa	8.66
333 K, 21100 kPa	8.7
333 K, 22400 kPa	8.73
333 K, 24100 kPa	8.8
333 K, 26000 kPa	8.87
333 K, 27400 kPa	8.93
333 K, 29300 kPa	8.99
343.4 K, 2200 kPa	6.66
343.4 K, 3000 kPa	6.79
343.4 K, 4000 kPa	6.95
343.4 K, 5000 kPa	7.06
343.4 K, 6200 kPa	7.2
343.4 K, 8100 kPa	7.4
343.4 K, 9200 kPa	7.47
343.4 K, 10400 kPa	7.58
343.4 K, 12300 kPa	7.71
343.4 K, 14200 kPa	7.83
343.4 K, 16200 kPa	7.94
343.4 K, 18200 kPa	8.04
343.4 K, 20300 kPa	8.14
343.4 K, 22200 kPa	8.22
343.4 K, 24200 kPa	8.31
343.4 K, 26000 kPa	8.37
343.4 K, 28000 kPa	8.45
343.4 K, 29500 kPa	8.5
353.4 K, 2600 kPa	6.05
353.4 K, 4600 kPa	6.39
353.4 K, 6400 kPa	6.65
353.4 K, 8100 kPa	6.84
353.4 K, 10000 kPa	6.99
353.4 K, 12200 kPa	7.15
353.4 K, 14400 kPa	7.29
353.4 K, 16400 kPa	7.41
353.4 K, 18300 kPa	7.52
353.4 K, 20200 kPa	7.6
353.4 K, 22200 kPa	7.7
353.4 K, 24400 kPa	7.78
353.4 K, 26400 kPa	7.86
353.4 K, 28600 kPa	7.95
363.8 K, 3600 kPa	5.46
363.8 K, 4300 kPa	5.73
363.8 K, 6100 kPa	6.09
363.8 K, 8200 kPa	6.37
363.8 K, 10200 kPa	6.57
363.8 K, 12200 kPa	6.74
363.8 K, 14200 kPa	6.88
363.8 K, 16200 kPa	7.01
363.8 K, 18200 kPa	7.12
363.8 K, 20300 kPa	7.22
363.8 K, 22200 kPa	7.31
363.8 K, 24300 kPa	7.41
363.8 K, 26000 kPa	7.48
363.8 K, 28200 kPa	7.56
363.8 K, 30000 kPa	7.63
363.8 K, 31200 kPa	7.66
372.9 K, 4000 kPa	4.66
372.9 K, 6300 kPa	5.55
372.9 K, 8200 kPa	5.86
372.9 K, 10100 kPa	6.08
372.9 K, 12200 kPa	6.27
372.9 K, 14200 kPa	6.42
372.9 K, 16000 kPa	6.53
372.9 K, 18000 kPa	6.65
372.9 K, 20200 kPa	6.75
372.9 K, 22200 kPa	6.85
372.9 K, 24200 kPa	6.94
372.9 K, 26200 kPa	7.02
372.9 K, 28100 kPa	7.09
372.9 K, 29800 kPa	7.15
372.9 K, 30700 kPa	7.18
383.1 K, 4800 kPa	3.97
383.1 K, 5800 kPa	4.7
383.1 K, 6800 kPa	5.06
383.1 K, 8200 kPa	5.35
383.1 K, 10400 kPa	5.65
383.1 K, 12000 kPa	5.8
383.1 K, 14200 kPa	6.09
383.1 K, 16200 kPa	6.24
383.1 K, 18400 kPa	6.38
383.1 K, 20000 kPa	6.48
